US11447485B2, “Class of bifunctional compounds with quanternary ammonium salt structure” (Beijing Showby Pharmaceutical Co., Ltd., priority 2016, dated 2022)

Assays:
[1] = system: tracheal smooth muscle of guinea pig; assay: Relaxation of CCh-induced constriction of isolated guinea pig tracheal smooth muscle (Experimental Example 1); details: for Onset time (min) ± SD / Time for eliminating inhibition effect (min): CCh 3 × 10^−6 mol/L, in vitro; for EC50: Cavia porcellus, read-out: EC50 (μM) ± SD
Method: The upper end was connected with a muscle tension transducer, and the specimen was given a resting tension of 1.0 g. Muscle tension changes were recorded, nutrient solution was changed every 20 min, and the experiment was started after 60 min of equilibrium.
Administration Method: After the trachea flake were stabilized, 3×10^−6 mol/L CCh was added to the bath. […] Diastolic condition of the trachea flake was observed. If no response occurred (below the threshold concentration), the next dosage was continued to be added in the order. If any response occurred, the next dosage was added until its diastolic platform was reached. The above operation was repeated until the shrink curve reached the minimum. Finally, 10^−6 mol/L isoproterenol was added to establish maximum relaxation, and the curve was recorded.
Statistical Methods: Statistics was performed using the Sigma Stat statistical software package, the data was analyzed by using the variance analysis. Student-Newman-Keuls (SNK) test was used in comparison among multiple sample averages number. The statistical test level was α=0.05 (bilateral).

[2] = biological target: T1, human recombinant β2 adrenoceptor (Homo sapiens, UniProt P07550); assay: cell-based; format: cell-based; details: EC50 (β1)/EC50 (β2)
T1 construct: expressed in transfected cells

[3] = system: bronchoconstriction response in the trachea of guinea pig induced by Mch; assay: Bronchoconstriction induced by methacholine (Mch) in anaesthetized guinea pigs, airway dripping (Raw, Cdyn); details: Mch 10 μg/kg iv; for Cdyn (ml/cmH2O) / Raw (cmH2O/ml/s): 30 min, Mean ± S.E.M

T1 sequence (P07550 whole entry): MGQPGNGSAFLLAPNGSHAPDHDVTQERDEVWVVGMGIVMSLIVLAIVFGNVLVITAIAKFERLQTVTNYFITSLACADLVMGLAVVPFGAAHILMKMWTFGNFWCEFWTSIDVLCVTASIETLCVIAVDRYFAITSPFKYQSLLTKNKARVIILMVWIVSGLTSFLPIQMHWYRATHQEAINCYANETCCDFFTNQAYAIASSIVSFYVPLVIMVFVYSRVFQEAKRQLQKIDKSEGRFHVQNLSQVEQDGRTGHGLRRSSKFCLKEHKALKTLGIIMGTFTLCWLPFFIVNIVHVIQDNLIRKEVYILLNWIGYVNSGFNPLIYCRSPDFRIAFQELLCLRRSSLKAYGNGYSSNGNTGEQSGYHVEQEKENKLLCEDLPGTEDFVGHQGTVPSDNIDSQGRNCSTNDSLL

SMILES	Onset time (min) ± SD [1] [min]	Time for eliminating inhibition effect (min) [1]	EC50 [1] [µM]	sel (β1/β2) [2]	Cdyn (ml/cmH2O) ([3]; 0.1 μg/kg airway dripping)	Raw (cmH2O/ml/s) ([3]; 0.1 μg/kg airway dripping)	inhibitory rate of lung dynamic compliance decrease ([3]; 0.1 μg/kg airway dripping) [%]	inhibitory rate on airway resistance increase ([3]; 0.1 μg/kg airway dripping) [%]	Cdyn (ml/cmH2O) ([3]; 0.3 μg/kg airway dripping)	Raw (cmH2O/ml/s) ([3]; 0.3 μg/kg airway dripping)	inhibitory rate of lung dynamic compliance decrease ([3]; 0.3 μg/kg airway dripping) [%]	inhibitory rate on airway resistance increase ([3]; 0.3 μg/kg airway dripping) [%]	Cdyn (ml/cmH2O) ([3]; 1 μg/kg airway dripping)	Raw (cmH2O/ml/s) ([3]; 1 μg/kg airway dripping)	inhibitory rate of lung dynamic compliance decrease ([3]; 1 μg/kg airway dripping) [%]	inhibitory rate on airway resistance increase ([3]; 1 μg/kg airway dripping) [%]
OCc1cc([C@@H](O)CNCCOCCCOCC[N+]23CCC(CC2)[C@@H](OC[C@@](O)(c2ccccc2)C2CCCC2)C3)ccc1O.[Br-] [Compound 48]	6.32 ± 0.49	more than 300 min	0.0154 ± 0.012	423.8	0.115 ± 0.011	0.712 ± 0.065	32.2	66.2	0.139 ± 0.012	0.523 ± 0.032	48.9	88.3	0.207 ± 0.016	0.493 ± 0.071	50.1	91.6
COc1cc(C(C)NC[C@H](O)c2ccc(O)c(CO)c2)ccc1OCCC[N+]12CCC(CC1)[C@@H](OC[C@@](O)(c1ccccc1)C1CCCC1)C2.[Br-] (stereo partly drawn) [Compound 70]	7.15 ± 0.31	more than 300 min	0.0183 ± 0.0087	379.8	0.218 ± 0.013	0.702 ± 0.098	34.2	69.6	0.357 ± 0.087	0.613 ± 0.107	47.8	86.5	0.345 ± 0.076	0.431 ± 0.095	49.3	92.1
CC(C)(Cc1ccc(OCC[N+]23CCC(CC2)[C@@H](OC[C@@](O)(c2ccccc2)C2CCCCC2)C3)cc1)NC[C@H](O)c1ccc(O)c(NC=O)c1.[Br-] [Compound 99]	7.35 ± 0.33	more than 300 min	0.0172 ± 0.0072	389	0.120 ± 0.017	0.778 ± 0.073	35.0	73.5	0.158 ± 0.021	0.528 ± 0.082	48.8	86.8	0.223 ± 0.035	0.421 ± 0.069	49.7	91.9
O=C1COc2c(cc(O)cc2[C@@H](O)CNCCCc2ccc(OCCC[N+]34CCC(CC3)[C@@H](OC[C@@](O)(c3ccccc3)C3CCCC3)C4)cc2)N1 [Compound 104]	6.67 ± 0.17	more than 300 min	0.0106 ± 0.0079	29.6												
O=C1COc2c(cc(O)cc2[C@@H](O)CNCc2cc(Cl)c(OCCC[N+]34CCC(CC3)[C@@H](OC[C@@](O)(c3ccccc3)C3CCCC3)C4)c(Cl)c2)N1.[Br-] [Compound 106]	6.26 ± 0.24	more than 300 min	0.0183 ± 0.0086	288.9												
OCc1cc([C@@H](O)CNCCOc2ccc(OCC[N+]34CCC(CC3)[C@@H](OC[C@@](O)(c3ccccc3)C3CCCC3)C4)cc2)ccc1O [Compound 114, (R)-(−)-3-[(R)-2-hydroxy-2-cyclopentyl-2-phenyl]ethoxy-1-{2-[4-(2-{(R)-[2-(3-hydroxymethyl-4-hydroxy)phenyl-2-hydroxy]ethylamino}ethyoxyl)phenoxy]ethyl}-1-azabicyclo[2,2,2]octylonium bromide]	6.24 ± 0.13	more than 300 min		98.9												
COc1cc(CNCC(O)c2ccc(O)c3[nH]c(=O)ccc23)c(Cl)cc1NC(=O)CC[N+]12CCC(CC1)C(OCC(O)(c1ccccc1)C1CCCC1)C2 [Compound 115, (R)-(−)-3-[(R)-2-hydroxy-2-cyclopentyl-2-phenyl]ethoxy-1-{3-[5-chloro-2-methoxy-4-({(R)-[2-hydroxy-2-(8-hydroxy-2-oxo-1,2-dihydroquinolin-5-yl)]ethylamino}methyl)anilino]oxopropyl}-1-azabicyclo[2,2,2]octylonium bromide]	6.82 ± 0.36	more than 300 min	0.0237 ± 0.01	85.5												
O=C(CC[N+]12CCC(CC1)[C@@H](OC[C@@](O)(c1ccccc1)C1CCCC1)C2)Nc1ccc(CNC[C@H](O)c2cc(O)cc3c2OCC(=O)N3)cc1 [Compound 116, (R)-(−)-3-[(R)-2-hydroxy-2-cyclopentyl-2-phenyl]ethoxy-1-{3-[4-({(R)-[2-hydroxy-2-(6-hydroxy-2H-1,4-benzoxazin-3(4H)-one-8-yl)]ethylamino}methyl)anilino]oxopropyl}-1-azabicyclo[2,2,2]octylonium bromide]	6.28 ± 0.56	more than 300 min	0.0267 ± 0.0072	68.8												
CC(NC[C@H](O)c1ccc(O)c(NC=O)c1)c1ccc(COCC[N+]23CCC(CC2)[C@@H](OC[C@@](O)(c2ccccc2)C2CCCC2)C3)cc1 (stereo partly drawn) [Compound 117, (R)-(−)-3-[(R)-2-hydroxy-2-cyclopentyl-2-phenyl]ethoxy-1-{2-[4-(2-{(R)-[2-hydroxy-2-(3-formamido-4-hydroxy)phenyl]ethylamino}ethylidene)benzyloxy]ethyl}-1-azabicyclo[2,2,2]octylonium bromide]	5.96 ± 0.21	more than 300 min	0.0217 ± 0.0081	39.8												
O=C1COc2c(cc(O)cc2[C@@H](O)CNCCOCc2ccc(COCC[N+]34CCC(CC3)[C@@H](OC[C@@](O)(c3ccccc3)C3CCCC3)C4)cc2)N1 [Compound 118, (R)-(−)-3-[(R)-2-hydroxy-2-cyclopentyl-2-phenyl]ethoxy-1-{2-[4-(2-{(R)-[2-hydroxy-2-(6-hydroxy-2H-1,4-benzoxazin-3(4H)-one-8-yl)]ethylamino}ethoxymethyl)benzyloxy]ethyl}-1-azabicyclo[2,2,2]octylonium bromide]	6.24 ± 0.41	more than 300 min	0.0241 ± 0.012	23.8												
COc1cc(NC(=O)CC[N+]23CCC(CC2)[C@@H](OC[C@@](O)(c2ccccc2)C2CCCC2)C3)c(Cl)cc1CNC[C@H](O)c1ccc(O)c(NC=O)c1.[Br-] [Compound 138]	6.56 ± 0.23	more than 300 min	0.0186 ± 0.0033	228.3	0.124 ± 0.019	0.687 ± 0.079	31.0	74.8	0.158 ± 0.036	0.508 ± 0.093	48.2	88.9	0.231 ± 0.022	0.418 ± 0.086	49.9	92.6
Cc1cc(CNC[C@H](O)c2ccc(O)c(NC=O)c2)ccc1NC(=O)CC[N+]12CCC(CC1)[C@@H](OC[C@@](O)(c1ccccc1)C1CCCC1)C2.[Br-] [Compound 140]	6.18 ± 0.18	more than 300 min	0.0235 ± 0.0054	86.9												
COC1CCC([C@@](O)(CO[C@H]2C[N+]3(CCC(=O)Nc4ccc(CNC[C@H](O)c5ccc(O)c(NC=O)c5)cc4)CCC2CC3)c2ccccc2)C1.[Br-] (stereo partly drawn) [Compound 141]	5.88 ± 0.26	more than 300 min	0.0363 ± 0.0095	135.9												
